The values that follow come from patent US8673907B2, “Pharmaceutically acceptable salts of methyl (3-{ [[3-(6-amino- 2-butoxy-8-oxo-7,8-dihydro-9H-purin-9-yl) propyl] (3-morpholin-4-ylpropyl) amino] methyl }phenyl) acetate and their use in therapy” (AstraZeneca AB, priority 2007, dated 2014).

Format in all cases: physicochemical
Series [1] in a line: Particle size reduction (micronisation) in 2" Spiral Jet Mill. To be noted: for Yield (micronisation): constant flow feed, venturi 5 bar, grind 1-2 bar. The method, then:
Particle size reduction using a 2″ Spiral Jet Mill (SJM) was carried out on the following three test substances: the monohydrochloride salt according to Example 1 (invention salt), the dimaleate salt according to Example 3 (invention salt) and the free base compound, methyl (3-{[[3-(6-amino-2-butoxy-8-oxo-7,8-dihydro-9H-purin-9-yl)propyl](3-morpholin-4-ylpropyl)amino]methyl}phenyl)acetate (comparison compound).
A sieved batch of test substance was fed into the jet mill chamber, via a venturi feed system, by a vibratory feeder. Micronisation was achieved by particle collisions brought about by compressed gas (nitrogen) forced through angled nozzles in the jet mill chamber. Particles of different sizes develop different speeds and momentum and as the particle size is reduced the particles spiral towards the centre of the jet mill and exit via an exhaust into a collection bin. The process parameters that control the particle size, in addition to the inherent properties of the compound to be micronised, are the feed rate, grinding pressure and venturi pressure and these are summarised in Table I following.

Series [2] in a line: Particle size measurement by laser diffraction (Malvern Scirocco) after micronisation. The conditions noted are these: after jet milling; pressure 4 bar (comparison) or 1.5 bar (salts). The method, then:
Particle size reduction (micronisation) was performed in a jet mill in which pressurised gas was used to make the substance particles collide at high speed in order to effect particle size reduction. Particle size measurements were performed with laser diffraction using a Malvern Scirocco instrument.

The nature of series [3]: Measurement of fine particle fraction (FPF) with Next Generation Impactor and HPLC. To be noted: for Delivered amount: 60 liters/min for 2 seconds; for FPF (% < 5 μm/delivered dose), Average over NGI's: average of NGI1 and NGI2.
Description: Measurement of FPF, starting from substance as received, was carried out according to the following series of steps:
Doses of 1-2 mg were weighed manually (without scraping) into the cavities of a prototype inhaler (see below). Two experiments were run for each test substance and two doses were used in each experiment and, thus, in total, four doses of each test substance were used in the experiments. The samples were dried in nitrogen gas atmosphere overnight before conducting the experiments.
The Next Generation Impactor, NGI, was used for the fine particle assessment. […] Two NGI impactors were used, one per experiment.
A simple prototype inhaler was used for the tests, consisting of an L-shaped cylindrical channel, comprising a vertical component and a horizontal component. The prototype inhaler was fitted via an USP-inlet to the NGI impactor. The micronised powder was transferred through the vertical channel into the bend of the prototype inhaler, (i.e. the bend of the L-shaped channel).
Each dose of 1-2 mg of powder was drawn with an airflow of 60 liters/min for 2 seconds (measured at the entrance of the induction port), entraining the powder located in the bend, and the aerosol thereafter moved through the horizontal component of the channel, through a spiral mouthpiece and into the NGI impactor.
The withdrawal and collection of the drug powders was performed in an isolator (glove) box with a relative humidity level below 2%.
The FPF's, as defined in the pharmacopoeia references above, were calculated.

With `CCCCOc1nc(N)c2[nH]c(=O)n(CCCN(CCCN3CCOCC3)Cc3cccc(CC(=O)OC)c3)c2n1` [Comparison compound, methyl (3-{[[3-(6-amino-2-butoxy-8-oxo-7,8-dihydro-9H-purin-9-yl)propyl](3-morpholin-4-ylpropyl)amino]methyl}phenyl)acetate, reference compound], in series [1], the “Micronisation behaviour (build-up/blocking of mill)” value (“Micronisation behaviour” for short) was “the mill became plugged” and the “Yield (micronisation)” value worked out at 1.7%. Moreover, in series [2], the “d(0.1)” value turned out to be 0.6 μm, the “d(0.5)” value is on record as 1.7 μm and the “d(0.9)” value turned out to be 4.1 μm. Also, in series [3] (NGI1), the “Amount particles < 5 μm, extrapolated” value is 139 µg; the “Collected in stage 3-8 (<4.5 μm)” value came out at 131 µg; the “FPF (% < 5 μm/delivered dose)” value came to 19.3%; the Delivered amount came out at 720 µg. In series [3] (NGI2), the “Amount particles < 5 μm, extrapolated” value was 189 µg; the “Collected in stage 3-8 (<4.5 μm)” value came out at 178 µg; the “FPF (% < 5 μm/delivered dose)” value was determined as 13.6%; the Delivered amount was 1396 µg. In addition, the “FPF (% < 5 μm/delivered dose), Average over NGI's” value in series [3] amounted to 16.4%.
Consider `CCCCOc1nc(N)c2[nH]c(=O)n(CCCN(CCCN3CCOCC3)Cc3cccc(CC(=O)OC)c3)c2n1.O=C(O)/C=C\C(=O)O.O=C(O)/C=C\C(=O)O` [Dimaleate salt, methyl (3-{[[3-(6-amino-2-butoxy-8-oxo-7,8-dihydro-9H-purin-9-yl)propyl](3-morpholin-4-ylpropyl)amino]methyl}phenyl)acetate dimaleate], for which, in series [1], the “Micronisation behaviour” value is “readily micronised” and the “Yield (micronisation)” value stood at 48%.
As to `Br.CCCCOc1nc(N)c2[nH]c(=O)n(CCCN(CCCN3CCOCC3)Cc3cccc(CC(=O)OC)c3)c2n1` [Monohydrobromide, methyl (3-{[[3-(6-amino-2-butoxy-8-oxo-7,8-dihydro-9H-purin-9-yl)propyl](3-morpholin-4-ylpropyl)amino]methyl}phenyl)acetate monohydrobromide], in series [2], the “d(0.1)” value was found to be 0.8 μm, the “d(0.5)” value amounted to 1.9 μm and the “d(0.9)” value was 4.1 μm. In series [3] (NGI1), the “Amount particles < 5 μm, extrapolated” value is 332 µg; the “Collected in stage 3-8 (<4.5 μm)” value came to 319 µg; the “FPF (% < 5 μm/delivered dose)” value is listed as 29.6%; the Delivered amount was determined as 1123 µg. Moreover, in series [3] (NGI2), the “Amount particles < 5 μm, extrapolated” value was 427 µg; the “Collected in stage 3-8 (<4.5 μm)” value is 414 µg; the “FPF (% < 5 μm/delivered dose)” value is 43.8%; the Delivered amount stood at 975 µg. The “FPF (% < 5 μm/delivered dose), Average over NGI's” value in series [3] is on record as 36.7%.
Turning to `CCCCOc1nc(N)c2[nH]c(=O)n(CCCN(CCCN3CCOCC3)Cc3cccc(CC(=O)OC)c3)c2n1.Cl` [Monohydrochloride, methyl (3-{[[3-(6-amino-2-butoxy-8-oxo-7,8-dihydro-9H-purin-9-yl)propyl](3-morpholin-4-ylpropyl)amino]methyl}phenyl)acetate monohydrochloride], in series [1], the “Micronisation behaviour” value is “readily micronised” and the “Yield (micronisation)” value is given as 85%. For the same compound, in series [2], the “d(0.1)” value was determined as 0.9 μm, the “d(0.5)” value is 1.8 μm and the “d(0.9)” value stood at 3.5 μm. Further, in series [3] (NGI1), the “Amount particles < 5 μm, extrapolated” value was 393 µg; the “Collected in stage 3-8 (<4.5 μm)” value came to 383 µg; the “FPF (% < 5 μm/delivered dose)” value was found to be 31.3%; the Delivered amount is 1257 µg. In addition, in series [3] (NGI2), the “Amount particles < 5 μm, extrapolated” value is 402 µg; the “Collected in stage 3-8 (<4.5 μm)” value was determined as 392 µg; the “FPF (% < 5 μm/delivered dose)” value is reported as 40.6%; the Delivered amount was 992 µg. In addition, in series [3], the “FPF (% < 5 μm/delivered dose), Average over NGI's” value came out at 35.9%.
